Data on one molecule can be found in US20240307348A1, “COMPOSITION FOR PREVENTING AND TREATING MUSCLE DISEASE, IMPROVING MUSCLE FUNCTION OR ENHANCING MOTOR PERFORMANCE COMPRISING HYDRANGENOL OR HYDRANGEA EXTRACT AS ACTIVE INGREDIENT” (COSMAXBIO CO., LTD., priority 2018, published 2024).

The structures appear in SMILES notation.

Assay [1] relates to C2C12 cells. Briefly: Change in muscle-related gene expression (qRT-PCR) upon treatment with hydrangenol or Hydrangea extract. Format: cell-based. The note with it: C2C12 cells differentiated 5 days, 1 hour or 24 hours. Here is the method:
Each sample obtained in Examples 1 and 2 was analyzed in regards to its effects on the change in gene expression involved in the gain of muscle mass and the mitochondrial biogenesis and electron transport chain (ETC). For this experiment, C2C12 cells were differentiated for 5 days and then treated with the sample of Example 1 (25 μg/ml) or Example 2 (2.5 μg/ml) for 1 hour or 24 hours, respectively. Then, Trizol was used to extract RNA from the cell, and cDNA was synthesized from the RNA (cDNA synthesis kit, Bio-Rad). Finally, a realtime PCR (qRT-PCR) was performed (Viia7, […] Biosystems) using the oligomers of Table 1 as primers.
In the experimental example, the extract of Hydrangea serrata is indicated as S; the extract of Hydrangea macrophylla as M; and hydrangenol as H. “0” means a control that was treated with vehicle.
(Real-time PCR tracks product formation cycle by cycle.)

For assay [2], the system named is C2C12 cells. Nature of the assay: Change in muscle-related protein expression (primary antibodies) upon treatment with hydrangenol or Hydrangea extract. As to conditions: C2C12 cells differentiated 5 days; Example 1 25 ug/ml or Example 2 2.5 ug/ml; 1 hour or 24 hours; FIG. 9. Format: cell-based. Here is the method: Each sample obtained in Examples 1 and 2 was analyzed in regards to its effects on the change in protein expression involved in the prevention of muscle diseases, the improvement of muscle functions, and the promotion of motor performance. For this experiment, C2C12 cells were differentiated for 5 days and then treated with the sample of Example 1 (25 ug/ml) or Example 2 (2.5 ug/ml) for 1 hour or 24 hours, respectively. Then, the cell was broken down with a modified LIPA buffer, and 20 ug of each sample was used for analysis. The primary antibodies of p-ERK (9101S: Cell Signaling), p-mTOR (ab109268, Abcam), mTOR (2972, Cell Signaling), p-p70S6K (9234, Cell Signaling), p-AMPK (4186, Cell Signaling), PGC1a (ab54481, Abcam), and ß-actin (A5316, Sigma) were used for the analysis.

Where [3] appears, read: Example 1 25 μg/ml or Example 2 2.5 μg/ml, FIG. 8.

On to `O=C1OC(c2ccc(O)cc2)Cc2cccc(O)c21` (centres unmarked) [Example 2, 8-hydroxy-3-(4-hydroxyphenyl)-3,4-dihydroisochromen-1-one], for which, in the assay on C2C12 cells [1] (setting [3]), the “expression of Myogenin” value is given as “promoted”, the “gene (mRNA) expression of PPARα” value is reported as “increase”, the “gene expression of MyoD” value is reported as “promoted” and the “gene expression of PGC1α” value is “activate”. In the assay on C2C12 cells [1] (setting [3]), the “gene expression of PPARδ” value is “activate” and the “gene expression of SIRT1” value is listed as “increased”. Besides, the “amount of expression for most of genes shown in FIG. 8” value in the assay on C2C12 cells [1] (Example 2 2.5 μg/ml) is given as “regulated”. Moreover, in the assay on C2C12 cells [2], the “activity of p-AMPK” value is given as “increased”, the “phosphorylation of ERK (MAPK)” value is recorded as “through the phosphorylation of ERK”, the “phosphorylation of mTOR” value is listed as “activated” and the “protein expression of PGC1α” value is recorded as “increased”.
